The subject of data set [1] is K562 CRISPRi cells. The data set is described as follows: Perturb-seq pooled growth measurement (sgRNA counts, growth phenotype γ, relative activity). As to conditions: for gamma_day5 / gamma_day10: pooled growth phenotype γ of the Perturb-seq sgRNA; for gamma_day5: day 5, K562 CRISPRi cells; for gamma_day10: day 10, K562 CRISPRi cells; for relative_activity_day5: γ relative to perfectly matched sgRNA (_00) of the same gene, day 5. It is filed as cell-based, human. The essentials: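 sgRNA abundance was sequenced from genomic DNA of the same transduced population sampled on days two, seven and twelve. Phenotype γ compares normalized day seven and twelve counts with day two. Day-seven values (five days of growth) define relative sgRNA activity.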

The subject of data set [2] is K562 CRISPRi cells. The description is as above. It is filed as cell-based, human. As to conditions: γ relative to perfectly matched sgRNA (_00) of the same gene, day 10.

In the data set with K562 CRISPRi cells [1], “BCR_ + _23523092.23-P1P2_07 (guide GCGCGCGGGGCTCGTCTCAG; listed as DNA, chemistry not fully specified)” displayed a gamma_day5 of −0.8707, a gamma_day10 of −0.4869 and a relative_activity_day5 of 1.033. In the data set with K562 CRISPRi cells [2], the relative_activity_day10 is listed as 0.9607.
In the case of “BCR_ + _23523092.23-P1P2_13 (guide GCGCGCGGGGCCCATCTCAG; listed as DNA, chemistry not fully specified)”, in the data set with K562 CRISPRi cells [1], the gamma_day5 is given as −0.2183, the gamma_day10 is recorded as −0.1615 and the relative_activity_day5 was determined as 0.2591. For the same substance, the relative_activity_day10 with K562 CRISPRi cells [2] is 0.3187.
The matching figures for “BCR_ + _23523092.23-P1P2_15 (guide GCGCGCGGGGCCCGTCGCAG; listed as DNA, chemistry not fully specified)”: −0.2314, −0.1773, 0.2747 and 0.3498.
The like results for “CAD_ + _27440280.23-P1P2_00 (guide GGCTGGAGAGAAGCCGGGCG; listed as DNA, chemistry not fully specified)” were, in that order, −0.7714, −0.684, 1 and 1.
In the data set with K562 CRISPRi cells [1], “CAD_ + _27440280.23-P1P2_03 (guide GGCTGGTGAGAAGCCGGGCG; listed as DNA, chemistry not fully specified)” registered a gamma_day5 of −0.7687, a gamma_day10 of −0.6267 and a relative_activity_day5 of 0.9965. Moreover, in the data set with K562 CRISPRi cells [2], the relative_activity_day10 was 0.9162.
In the data set with K562 CRISPRi cells [1], “CAD_ + _27440280.23-P1P2_06 (guide GGCTGGAGAGTAGCCGGGCG; listed as DNA, chemistry not fully specified)” yielded a gamma_day5 of −0.3975, a gamma_day10 of −0.3141 and a relative_activity_day5 of 0.5153. Also, the relative_activity_day10 with K562 CRISPRi cells [2] is given as 0.4592.
The like results for “CAD_ + _27440280.23-P1P2_07 (guide GGCTGGAGCGAAGCCGGGCG; listed as DNA, chemistry not fully specified)” were, in that order, −0.6026, −0.4659, 0.7812 and 0.6811.
The matching figures for “CAD_ + _27440280.23-P1P2_13 (guide GGCTGGAGAGAAGCCTGGCG; listed as DNA, chemistry not fully specified)”: −0.1861, −0.1648, 0.2413 and 0.241.
In the data set with K562 CRISPRi cells [1], “CDC23_ −_137548987.23-P1P2_00 (guide GACAGCCACCGGGACCATGG; listed as DNA, chemistry not fully specified)” returned a gamma_day5 of −1.176, a gamma_day10 of −0.6584 and a relative_activity_day5 of 1. In the data set with K562 CRISPRi cells [2], this substance came in with a relative_activity_day10 of 1.
In the data set with K562 CRISPRi cells [1], “CDC23_ −_137548987.23-P1P2_02 (guide GACAGCTACCGGGACCATGG; listed as DNA, chemistry not fully specified)” yielded a gamma_day5 of −1.087, a gamma_day10 of −0.5705 and a relative_activity_day5 of 0.9238. Moreover, the relative_activity_day10 in the data set with K562 CRISPRi cells [2] is 0.8665.
The like results for “CDC23_ −_137548987.23-P1P2_04 (guide GACAGCCAACGGGACCATGG; listed as DNA, chemistry not fully specified)” were, in that order, −0.8887, −0.5364, 0.7556 and 0.8148.
In the data set with K562 CRISPRi cells [1], “CDC23_ −_137548987.23-P1P2_08 (guide GACAGCCATCGGGACCATGG; listed as DNA, chemistry not fully specified)” registered a gamma_day5 of −0.9559, a gamma_day10 of −0.5501 and a relative_activity_day5 of 0.8128. In the data set on K562 CRISPRi cells [2], this substance yielded a relative_activity_day10 of 0.8355.
In the data set with K562 CRISPRi cells [1], “CDC23_ −_137548987.23-P1P2_11 (guide GACAGCCACCGGGACCACGG; listed as DNA, chemistry not fully specified)” returned a gamma_day5 of −0.2745, a gamma_day10 of −0.2018 and a relative_activity_day5 of 0.2334. In the data set on K562 CRISPRi cells [2], the relative_activity_day10 is 0.3065.
The matching figures for “COX11_ + _53045977.23-P1P2_00 (guide GGCTCTGGCGTCCTGGATGG; listed as DNA, chemistry not fully specified)”: −0.1817, −0.2988, 1 and 1.
In the data set with K562 CRISPRi cells [1], “COX11_ + _53045977.23-P1P2_03 (guide GGCTCTGTCGTCCTGGATGG; listed as DNA, chemistry not fully specified)” yielded a gamma_day5 of −0.1719, a gamma_day10 of −0.2875 and a relative_activity_day5 of 0.9463. The same substance yielded a relative_activity_day10 in the data set with K562 CRISPRi cells [2] of 0.9622.
The like results for “COX11_ + _53045977.23-P1P2_04 (guide GGCTCTGGCGCCCTGGATGG; listed as DNA, chemistry not fully specified)” were, in that order, −0.1495, −0.2574, 0.8227 and 0.8616.
In the data set with K562 CRISPRi cells [1], “COX11_ + _53045977.23-P1P2_05 (guide GGCTCTGGCGTCTTGGATGG; listed as DNA, chemistry not fully specified)” came in with a gamma_day5 of −0.0555, a gamma_day10 of −0.108 and a relative_activity_day5 of 0.3055. This substance also displayed a relative_activity_day10 in the data set with K562 CRISPRi cells [2] of 0.3613.
In the case of “COX11_ + _53045977.23-P1P2_10 (guide GGCTCTGGCGTCCCGGATGG; listed as DNA, chemistry not fully specified)”, in the data set on K562 CRISPRi cells [1], the gamma_day5 was −0.1247, the gamma_day10 is recorded as −0.1116 and the relative_activity_day5 was determined as 0.6866. This substance yielded a relative_activity_day10 with K562 CRISPRi cells [2] of 0.3734.
The matching figures for “DBR1_ + _137893744.23-P1P2_00 (guide GTTTGCAGGAGTCTACACCC; listed as DNA, chemistry not fully specified)”: −0.4556, −0.4893, 1 and 1.
The matching figures for “DBR1_ + _137893744.23-P1P2_01 (guide GATTGCAGGAGTCTACACCC; listed as DNA, chemistry not fully specified)”: −0.5119, −0.5474, 1.124 and 1.119.
The like results for “DBR1_ + _137893744.23-P1P2_05 (guide GTTTGCAGGAGTGTACACCC; listed as DNA, chemistry not fully specified)” were, in that order, −0.3102, −0.3094, 0.6809 and 0.6323.
In the case of “DBR1_ + _137893744.23-P1P2_07 (guide GTTTGCAGGGGTCTACACCC; listed as DNA, chemistry not fully specified)”, in the data set with K562 CRISPRi cells [1], the gamma_day5 is −0.5167, the gamma_day10 is −0.468 and the relative_activity_day5 is recorded as 1.134. The relative_activity_day10 with K562 CRISPRi cells [2] was found to be 0.9563.
In the data set with K562 CRISPRi cells [1], “DBR1_ + _137893744.23-P1P2_08 (guide GTTTGCAGTAGTCTACACCC; listed as DNA, chemistry not fully specified)” came in with a gamma_day5 of −0.03529, a gamma_day10 of −0.05261 and a relative_activity_day5 of 0.07746. The relative_activity_day10 in the data set on K562 CRISPRi cells [2] was determined as 0.1075.
The like results for “DUT_ + _48624411.23-P1P2_00 (guide GCGAGCGAGGAGACCACCGG; listed as DNA, chemistry not fully specified)” were, in that order, −0.7929, −0.6457, 1 and 1.
As for “DUT_ + _48624411.23-P1P2_01 (guide GCCAGCGAGGAGACCACCGG; listed as DNA, chemistry not fully specified)”, in the data set with K562 CRISPRi cells [1], the gamma_day5 is −0.7924, the gamma_day10 is on record as −0.6032 and the relative_activity_day5 was determined as 0.9993. Besides, in the data set with K562 CRISPRi cells [2], the relative_activity_day10 amounted to 0.9341.
The like results for “DUT_ + _48624411.23-P1P2_07 (guide GCGAGCGAGGAGCCCACCGG; listed as DNA, chemistry not fully specified)” were, in that order, −0.7197, −0.4998, 0.9077 and 0.774.
The matching figures for “DUT_ + _48624411.23-P1P2_08 (guide GCGAGCGAGGAGGCCACCGG; listed as DNA, chemistry not fully specified)”: −0.7725, −0.5862, 0.9742 and 0.9077.
On to “DUT_ + _48624411.23-P1P2_10 (guide GCGAGCGAGGAGACCAACGG; listed as DNA, chemistry not fully specified)”, for which, in the data set with K562 CRISPRi cells [1], the gamma_day5 was −0.3864, the gamma_day10 is given as −0.3196 and the relative_activity_day5 was determined as 0.4873. For the same substance, in the data set on K562 CRISPRi cells [2], the relative_activity_day10 came out at 0.4949.

The values above are taken from US20220259593A1, “CONTROL OF MAMMALIAN GENE DOSAGE USING CRISPR” (The Regents of the University of California, priority 2019, published 2022).
